This note sets out measurements from the METLIN SMRT retention time set (Domingo-Almenara et al. 2019).

Each structure is given as a SMILES string.

The data set in a line: gradient 5% acetonitrile 3 min, to 50% in 2 min, to 85% in 15 min, held 3 min, 100 µL/min. To be noted: column: Zorbax Extend-C18 2.1 x 50 mm; eluents: water / acetonitrile, 0.1% formic acid. The essentials: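 Each retention time is based on an adduct peak selected computationally and verified by manual inspection. Measurements used HPLC–quadrupole time-of-flight mass spectrometry in positive and negative ionization mode on mixtures of ~100 pure standards. Chromatography ran on a Zorbax Extend-C18 column (2.1 × 50 mm, 1.8 μm) at 100 μL/min with water and acetonitrile, each containing 0.1% formic acid, and dead and dwell volumes of 40 μL and 900 μL.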
As for `COCCn1c(CC2CCN(C(=O)c3ccc(C)s3)C2)nc2cccnc21` (stereo not drawn), the RP-LC retention time turned out to be 604 s.
`Cc1ccccc1-c1noc(N2CCC(C(=O)NCc3ccc4c(c3)OCO4)CC2)n1` yielded an RP-LC retention time of 942 s.
`COc1ccc(N2CCN(S(=O)(=O)c3cc(-c4nc(C(C)C)cs4)cs3)CC2)cc1` gave an RP-LC retention time of 1250 s.
To `O=C(c1cnccn1)N1CCN(c2nc(-c3ccc(Cl)cc3)no2)CC1` belongs 828 s; to `Cc1cc2n(n1)CCC(=O)N2CCCC(=O)NCc1ccc(C)o1`, 644 s; to `CC1=C(c2cccc(Cl)c2)S(=O)(=O)N=C1N1CCCN(C(=O)c2cccs2)CC1`, 860 s.
`Cc1nncn1C1CN(C(=O)c2cc3ccccc3[nH]2)C1` came in with an RP-LC retention time of 623 s.
The figure for `CSc1ccc(CCNC(=O)C2CCCN(C(=O)c3cc(C)cc(C)c3)C2)cc1` (stereo not drawn) is 936 s; for `CSc1cccc(NC(=O)NCC(c2cccnc2)c2cn(C)c3ccccc23)c1` (stereo not drawn) it is 733 s; for `CC1CN(CCc2ccccc2)c2nc3c(c(=O)n(CCN4CCOCC4)c(=O)n3C)n2C1` (stereo not drawn) it is 680 s.
The figure for `CCn1c(=O)sc2cc(S(=O)(=O)N3CCC(C(=O)NC4CC4)CC3)ccc21` is 737 s.
To `O=C(NCc1ccc(F)c(Cl)c1)C1=C2CCCN2c2ccc(F)cc2S1(=O)=O` belongs 934 s; to `CCc1ccc(-c2cn3cc(C(=O)NCCN4CCN(CC)CC4)ccc3n2)cc1`, 576 s; to `Cc1cc(-c2nnc3sc(COc4ccc(Br)cc4)nn23)n[nH]1`, 786 s.
As for `COc1ccc(NC(=O)C2CCN(C(=O)C3Sc4ccccc4NC3=O)CC2)cc1OC` (stereo not drawn), the RP-LC retention time was 692 s.
The figure for `Cc1cc(-c2ccccc2)nc(Nc2nc(-c3ccccc3)c(CC(=O)O)s2)n1` is 922 s; for `Cc1c(CN2CCSCC2)nnn1-c1ccc(F)cc1` it is 610 s; for `CC(C)CN1CCN(S(=O)(=O)c2cc(-c3nnc(C4CCCC4)o3)co2)CC1` it is 678 s.
To `CC(=O)Nc1ccc(CCc2nc3ccc(C(=O)NCc4ccco4)cc3[nH]2)cc1` belongs 606 s.
The figure for `NCCc1ccc(S(=O)(=O)F)cc1` is 653 s; for `COc1ccc(OC)c(CNC(=O)C2CCCN(c3ccc(=O)n(-c4ccc(F)cc4)n3)C2)c1` (stereo not drawn) it is 812 s; for `Cc1cc(C)n(-c2ccnc(N3CCC(C(=O)N4CCCC4)CC3)n2)n1` it is 739 s.
Regarding `Cc1noc(CNC(=O)C2CCN(C(=O)CSc3nc4ccccc4s3)CC2)n1`, the RP-LC retention time came out at 665 s.
The figure for `O=C(Nc1ccccc1Cl)N(Cc1ccsc1)Cc1ccccn1` is 806 s.
The figure for `O=C1CC(c2noc(CN3CCN(c4ccccn4)CC3)n2)CN1c1ccc(F)cc1` (stereo not drawn) is 576 s; for `O=C(NCC1CCCCC1)C1CCN(C(=O)c2ncn3c2COC(c2ccccc2)C3)CC1` (stereo not drawn) it is 802 s; for `CC(CNC(=O)CN1C(=O)CCCc2ccccc21)c1ccccc1` (stereo not drawn) it is 836 s.
To `Cc1[nH]c(C)c(S(=O)(=O)N2CCC(C(=O)NC3CCC(C)CC3)CC2)c1C(=O)N1CCCCC1` (stereo not drawn) belongs 778 s.
Consider `O=C(NCCCO)C(=O)NCCc1ccc(Cl)cc1`, for which the RP-LC retention time was 698 s.
The figure for `O=c1ccc(-c2nc(-c3cccc(Cl)c3)no2)cn1Cc1ccncc1` is 722 s; for `COc1cc(NC(=O)CN2CC(C)Sc3ccccc32)cc(OC)c1` (stereo not drawn) it is 971 s.
The figure for `O=C1NC2(CCN(C(=O)NCc3ccccc3)CC2)Nc2c(Cl)cccc21` is 724 s; for `O=C([C@@H]1C[C@H](F)CN1C(=O)Nc1cccc(F)c1)N1CCOCC1` it is 628 s.
